What was measured:
Design in all cases: species or system Tryporyza intacta
[1] = biological target: TintPBP1 (Scirpophaga excerptalis, UniProt A0A345D2V5); assay: Fluorescence competitive binding assay with 1-NPN probe, TintPBP1; conditions: for Ki: calculated from IC50, 1-NPN probe; for IC50: displacement of 1-NPN (2 μM), 25 °C; for Binding to TintPBP1 in competitive binding (in words): competitor 0.5–10.0 μM
Description: (§1) To measure the affinities of the sex pheromones to TintPBP1-3 proteins, we used N-Phenyl-1-naphthylamine (1-NPN) as the fluorescent probe on a Hitachi F-4500 at 25 °C based on the method of Mao et al.[17]. 1-NPN was used as the fluorescent reporter (2 μM) and 0.5–10.0 μM for each competitor was used to test fluorescence competitive binding affinities of sex pheromones. Six compounds were selected and measured in competitive binding assays. The dissociation constant for 1-NPN and binding results were analyzed by Prism software. Each of IC50 values (concentrations of ligands halving the initial fluorescence value of 1-NPN) from competitors were calculated using following equation: Ki=[IC50]/1+[1−NPN]/K1−NPN, where [1-NPN] is the free concentration of 1-NPN and K1−NPN is the dissociation constant of the complex protein/1-NPN.

[2] = biological target: TintPBP3 (Scirpophaga excerptalis, UniProt A0A345D2V7); assay: Fluorescence competitive binding assay with 1-NPN probe, TintPBP3; conditions: for Ki: calculated from IC50, 1-NPN probe; for IC50: displacement of 1-NPN (2 μM), 25 °C; for Binding to TintPBP3 in competitive binding (in words): competitor 0.5–10.0 μM
TintPBP3, sequence (A0A345D2V7 entry or part of it): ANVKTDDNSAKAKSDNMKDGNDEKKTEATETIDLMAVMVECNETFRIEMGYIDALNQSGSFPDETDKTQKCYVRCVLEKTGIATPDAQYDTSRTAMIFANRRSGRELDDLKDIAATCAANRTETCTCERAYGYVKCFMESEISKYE
Description: as §1

[3] = biological target: TintPBP2 (Scirpophaga excerptalis, UniProt A0A345D2V6); assay: Fluorescence competitive binding assay with 1-NPN probe, TintPBP2; conditions: for Ki: calculated from IC50, 1-NPN probe; for IC50: displacement of 1-NPN (2 μM), 25 °C; for Binding to TintPBP2 in competitive binding (in words): competitor 0.5–10.0 μM
TintPBP2, sequence (A0A345D2V6 entry or part of it): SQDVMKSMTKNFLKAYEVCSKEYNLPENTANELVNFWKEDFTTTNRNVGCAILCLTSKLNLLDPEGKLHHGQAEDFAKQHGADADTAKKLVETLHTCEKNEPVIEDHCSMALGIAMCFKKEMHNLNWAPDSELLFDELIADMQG
Description: as §1

TintPBP1, sequence (A0A345D2V5 entry or part of it): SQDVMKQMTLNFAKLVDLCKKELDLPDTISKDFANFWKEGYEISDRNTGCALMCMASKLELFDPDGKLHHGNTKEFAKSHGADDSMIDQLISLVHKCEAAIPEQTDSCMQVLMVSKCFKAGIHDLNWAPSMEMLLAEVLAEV

Row | SMILES | Ki [1] | IC50 [1] | Ki [2] | IC50 [2] | Ki [3] | IC50 [3] | Binding to TintPBP1 in competitive binding (in words) [1] | Binding to TintPBP3 in competitive binding (in words) [2] | Binding to TintPBP2 in competitive binding (in words) [3]
1 | CCCC/C=C\CCCCCCCCCC=O [Z11–16: Ald] | 2.95 ± 0.04 µM | 4.27 ± 0.05 µM | 3.96 ± 0.28 µM | 4.66 ± 0.33 µM | 2.83 ± 0.11 µM | 3.81 ± 0.15 µM |  |  | 
2 | CCCC/C=C\CCCCCCCCCCOC(C)=O [Z11–16:AC] |  |  |  |  |  |  | cannot bind | cannot bind | cannot bind
3 | CCCC/C=C\CCCCCCCCCCCCOC(C)=O [Z13–18:AC] |  |  |  |  |  |  | cannot bind | cannot bind | cannot bind
4 | CCCC/C=C/CCCCCCCCCC=O [E11–16: Ald] | 2.15 ± 0.16 µM | 3.09 ± 0.22 µM | 3.45 ± 0.21 µM | 4.08 ± 0.24 µM | 3.58 ± 0.13 µM | 4.78 ± 0.17 µM |  |  | 

Now from value to molecule:

Row | Ki [1] | IC50 [1] | Ki [2] | IC50 [2] | Ki [3] | IC50 [3] | Binding to TintPBP1 in competitive binding (in words) [1] | Binding to TintPBP3 in competitive binding (in words) [2] | Binding to TintPBP2 in competitive binding (in words) [3] | SMILES
5 |  |  |  |  |  |  | cannot bind | cannot bind | cannot bind | CCCC/C=C\CCCCCCCCCCCCO [Z13–18:OH]
6 |  |  |  |  |  |  | cannot bind | cannot bind | cannot bind | CCCC/C=C\CCCCCCCCCCO [Z11–16:OH]

— publication PMC6050284, “Molecular characterization and functional differentiation of three pheromone-binding proteins from Tryporyza intacta” (Scientific Reports, 2018)
